According to US20250152552A1, “CANCER-CELL PROLIFERATION INHIBITOR AND CANCER-CELL-PROLIFERATION INHIBITION ENHANCER” (KYUSHU UNIVERSITY, NATIONAL UNIVERSITY CORPORATION, priority 2022, published 2025):

Assays:
[1] = mouse, oral administration; Biol. Pharm. Bull, 42, 212-221, 2019; cited from earlier work
[2] = system: MC38 mouse colon cancer cell line; test: Administration of EGC-M5 alone, subcutaneous MC38 tumor growth in mice (Comparative Example); assay type: in vivo; conditions: 16 days after transplantation; EGC-M5 5, 10, 20 and 30 mg/kg b.w. i.p. daily; vs control group, Tukey test
Description: After preparatory rearing, MC38 mouse colon cancer cell line was transplanted subcutaneously into the 6-weeks-old male C57BL/6 mice at an amount of 5.0×10^5 cells/mouse. Each group had 8 mice. EGC-M5 was dissolved in the PBS buffer containing 10% DMSO. 200 μL of EGC-M5 solution at a dose of 5 mg, 10 mg, 20 mg, and 30 mg/kg b.w. was intraperitoneally administered to the mice daily starting on day 4 after transplantation. The tumor volume was measured with the vernier calipers, and the growth of the tumor was evaluated with time.
Regarding to the mean (Mean) and the standard error (S.E.) of the tumor volume (natural logarithm) 16 days after transplantation, the significant difference between the control group (Control group) and the EGC-M5 administration group was assessed by Tukey's Multiple Comparison test.

Question: What does the source list for `O=C1CC[C@H](Cc2cc(O)cc(O)c2)O1` [EGC-M5, (R)-5-(3,5-dihydroxyphenyl)-γ-valerolactone]?
Answer: conjugates detected in serum [1]: the sulfate conjugate and the glucuronic acid conjugate of the compound of 5-(3,5-dihydroxyphenyl)-γ-valerolactone are detected in the serum; tumor volume (natural logarithm) [2]: no significant differences were observed in the tumor volume values
